Measured values taken from patent US8618111B2, “5-alkynyl-pyrimidines” (Boehringer Ingelheim International GmbH, priority 2010, dated 2013).

How the values were obtained:
[1] = target: mTOR (Homo sapiens (Human), UniProt P42345); assay: mTOR kinase activity assay (phosphorylation status of mTOR substrate 4E-BP1; TR-FRET); assay type: biochemical; conditions: GFP-4E-BP1 substrate, 8 μM ATP
Procedure: mTOR Kinase Activity Assay
(Phosphorylation Status of mTOR Substrate 4E-BP1; TR-FRET)
The mTOR kinase TR-FRET assay utilizes a physiologically relevant protein substrate for mTOR (4E-BP1, labeled with an acceptor fluorophore (Green Fluorescent Protein) and paired with a corresponding Tb-labeled phospho-specific antibody.
The assay itself is divided into two phases: the reaction phase and the detection phase. In the reaction phase, all components required for the kinase reaction are added to the well, including the labeled protein substrate. The reaction is allowed to incubate for 60 minutes. After the reaction, EDTA is added to stop the kinase reaction, and terbium-labeled antibody is added to bind phosphorylated product. Because the terbium chelate is stable at the EDTA concentrations used to stop a kinase assay, the antibody and EDTA can be pre-mixed prior to addition to minimize pipetting steps. Binding of the terbium labeled antibody to the fluorophore-labeled phosphorylated product brings the terbium and GFP into proximity, resulting in an increase in TR-FRET. In the presence of an inhibitor, formation of phosphorylated product is reduced, and the TR-FRET value is decreased.
• GFP-4E-BP1 substrate; Invitrogen order no. PV4759 • Lanthascreen Tb-anti-p4E-BP1 (pThr46) Antibody Kit; Invitrogen order no. PV4758 • FRAP1 (mTOR) kinase; Invitrogen order no.
400 nM GFP-4E-BP1, 8 μM ATP, ˜150 ng/mL mTOR, 50 mM HEPES pH 7.5, 0.01% Polysorbate 20, 1 mM EGTA, 10 mM MnCl2, and variable amounts of test compounds.
Note: Thaw and keep mTOR, the substrate, ATP, and the antibody on ice prior to making working dilutions. Working dilutions of these components can be kept at room temperature for short periods of time the day of use. • 1. Add 2 ml of 5× Assay Buffer to 8 ml water to prepare 10 ml of 1× Assay Buffer, wherein the concentration of 1× Assay Buffer is 50 mM HEPES pH 7.5, 0.01% Polysorbate 20, 1 mM EGTA, and 10 mM MnCl2. • 2. Prepare Antibody/EDTA Solution by first adding 2.75 μl of Tb-anti p4E-BP1 Antibody to 2397 μl of LanthaScreen™ TR-FRET Dilution Buffer. Then, add 100 μl of 0.5 M EDTA. • 3. […] Then, add 1.6 μl of mTOR (0.45 mg/mL). • 4. Prepare ATP Solution by adding 3.2 μl of 10 mM ATP to 1997 μl of 1× Assay Buffer. Serial Dilution of Inhibitors (16 Point Curve)
Inhibitors are serially diluted in DMSO, then diluted to a 4× working concentration with 1× Assay Buffer. • 1. Dispense 40 μl of DMSO to two adjacent columns of a 96 well plate per compound (e.g. columns 1 and 2). • 2. Add 10 μl of inhibitor stock (10 mM) to the first well of the first column (A1) and mix. • 3. Remove 10 μl from A1 and transfer to the adjacent well in the next column (B1) and mix. • 4. Remove 10 μl from B1 and transfer to the next well in the first column (B2) and mix. • 5. […] Remove 4 μl of diluted compounds and add to 96 μl of 1× Assay Buffer in a 96-well plate making 4× compound dilutions. Kinase Reaction • 1. Add 2.5 μl of 4X compound dilutions to a 384-well plate. • 2. […] Preincubate for […] at RT (shaker). • 5. Add 5 μl of ATP Solution to all wells to start reactions. • 6. Shake the assay plate on a plate shaker for 30 seconds. • 7. Incubate the assay plate for one hour at room temperature (20-25° C.). Stop Step and Fluorescence Detection • 1. Add 10 μl of Antibody/EDTA Solution to each well in columns 1-9. • 2. Shake the assay plate on a plate shaker for 30 seconds. • 3. Incubate the assay plate for one hour at room temperature (20-25° C.). • 4. Measure the GFP (FRET) and terbium (reference) emission signals on a fluorescence plate reader (e.g. Perkin Elmer Envision). Data Analysis • 1. Calculate the emission ratio for each sample by dividing the GFP (FRET) signal by the terbium (reference) signal. • 2.

[2] = test system: PC3 (human prostate carcinoma cell line) cells; assay: PC3 proliferation test; assay type: cell-based; conditions: PC-3, 72 h, 3 days incubation, DNA dye fluorescence
Procedure: The test is based on measurement of cellular DNA content via fluorescent dye binding. Because cellular DNA content is highly regulated, it is closely proportional to cell number. The extent of proliferation is determined by comparing cell counts for samples treated with drugs with untreated controls.
PC3 (human prostate carcinoma cell line) cells are sown in microtitre plates and incubated overnight in culture medium at 37° C. and 5% CO2. The test substances are diluted stepwise and added to the cells such that the total volume is 200 μL/well. Cells to which diluent, but not substance, is added serve as controls.

[3] = target: PI3Kalpha (Homo sapiens (Human), UniProt P42336); assay: Inhibition of PI3Kalpha-induced PIP-2 phosphorylation (filter-binding assay); assay type: biochemical; conditions: 33P-ATP
Sequence of PI3Kalpha (P42336 whole entry, species assumed): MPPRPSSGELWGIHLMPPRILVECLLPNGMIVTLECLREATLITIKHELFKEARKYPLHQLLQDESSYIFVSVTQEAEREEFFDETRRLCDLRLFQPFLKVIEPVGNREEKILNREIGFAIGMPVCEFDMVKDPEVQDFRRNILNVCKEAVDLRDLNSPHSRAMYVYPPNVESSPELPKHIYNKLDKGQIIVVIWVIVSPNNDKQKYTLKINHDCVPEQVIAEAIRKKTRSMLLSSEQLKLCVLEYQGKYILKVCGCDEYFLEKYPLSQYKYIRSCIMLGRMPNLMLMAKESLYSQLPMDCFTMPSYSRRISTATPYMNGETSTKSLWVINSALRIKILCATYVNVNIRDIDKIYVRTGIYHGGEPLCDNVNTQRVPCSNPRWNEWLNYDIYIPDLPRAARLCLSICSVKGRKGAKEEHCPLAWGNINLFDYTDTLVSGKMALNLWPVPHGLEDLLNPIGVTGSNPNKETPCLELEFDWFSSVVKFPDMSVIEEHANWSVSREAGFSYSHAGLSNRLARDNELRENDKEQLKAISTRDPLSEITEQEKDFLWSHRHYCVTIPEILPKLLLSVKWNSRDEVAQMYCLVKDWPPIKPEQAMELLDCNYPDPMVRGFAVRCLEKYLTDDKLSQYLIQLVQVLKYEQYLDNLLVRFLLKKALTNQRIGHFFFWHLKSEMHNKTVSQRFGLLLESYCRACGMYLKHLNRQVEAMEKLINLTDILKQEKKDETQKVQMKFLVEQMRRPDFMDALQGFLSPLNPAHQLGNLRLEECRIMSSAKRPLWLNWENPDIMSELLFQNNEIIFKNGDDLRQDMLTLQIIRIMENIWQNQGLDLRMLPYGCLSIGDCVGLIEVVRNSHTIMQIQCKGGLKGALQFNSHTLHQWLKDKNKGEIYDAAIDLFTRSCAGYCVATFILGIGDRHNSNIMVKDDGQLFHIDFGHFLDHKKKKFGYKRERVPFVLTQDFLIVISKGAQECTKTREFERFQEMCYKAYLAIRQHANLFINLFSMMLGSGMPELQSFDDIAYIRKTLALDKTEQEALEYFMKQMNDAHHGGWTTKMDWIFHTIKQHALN
Sequence of PI3Kalpha (P27986 whole entry partner, species assumed): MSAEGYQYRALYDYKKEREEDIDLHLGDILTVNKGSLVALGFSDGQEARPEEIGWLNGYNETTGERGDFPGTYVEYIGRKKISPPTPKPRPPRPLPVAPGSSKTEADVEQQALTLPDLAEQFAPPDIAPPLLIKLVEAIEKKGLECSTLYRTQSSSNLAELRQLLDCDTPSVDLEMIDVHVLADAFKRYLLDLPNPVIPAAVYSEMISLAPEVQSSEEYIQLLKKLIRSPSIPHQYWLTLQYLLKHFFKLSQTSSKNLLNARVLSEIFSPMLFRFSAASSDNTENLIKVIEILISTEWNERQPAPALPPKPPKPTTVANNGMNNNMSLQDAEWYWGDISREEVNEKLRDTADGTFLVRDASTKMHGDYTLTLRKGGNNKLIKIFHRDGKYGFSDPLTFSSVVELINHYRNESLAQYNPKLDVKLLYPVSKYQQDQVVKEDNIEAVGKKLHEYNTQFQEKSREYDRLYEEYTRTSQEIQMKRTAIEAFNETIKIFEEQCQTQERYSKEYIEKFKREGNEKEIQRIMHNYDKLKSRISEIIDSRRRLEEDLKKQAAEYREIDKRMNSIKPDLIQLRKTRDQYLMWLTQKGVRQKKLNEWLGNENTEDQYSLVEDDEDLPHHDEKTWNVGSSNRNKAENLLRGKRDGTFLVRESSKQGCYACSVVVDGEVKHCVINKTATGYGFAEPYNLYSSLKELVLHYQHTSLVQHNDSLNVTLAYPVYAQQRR
Procedure: Inhibition of PI3Kalpha-Induced PIP-2 Phosphorylation
Method Type: Filter-Binding-Assay
Aliquoted in desired amounts and stored at −80° C. Final assay concentration 25 ng/well.

Sequence of mTOR (P42345 1360-2549): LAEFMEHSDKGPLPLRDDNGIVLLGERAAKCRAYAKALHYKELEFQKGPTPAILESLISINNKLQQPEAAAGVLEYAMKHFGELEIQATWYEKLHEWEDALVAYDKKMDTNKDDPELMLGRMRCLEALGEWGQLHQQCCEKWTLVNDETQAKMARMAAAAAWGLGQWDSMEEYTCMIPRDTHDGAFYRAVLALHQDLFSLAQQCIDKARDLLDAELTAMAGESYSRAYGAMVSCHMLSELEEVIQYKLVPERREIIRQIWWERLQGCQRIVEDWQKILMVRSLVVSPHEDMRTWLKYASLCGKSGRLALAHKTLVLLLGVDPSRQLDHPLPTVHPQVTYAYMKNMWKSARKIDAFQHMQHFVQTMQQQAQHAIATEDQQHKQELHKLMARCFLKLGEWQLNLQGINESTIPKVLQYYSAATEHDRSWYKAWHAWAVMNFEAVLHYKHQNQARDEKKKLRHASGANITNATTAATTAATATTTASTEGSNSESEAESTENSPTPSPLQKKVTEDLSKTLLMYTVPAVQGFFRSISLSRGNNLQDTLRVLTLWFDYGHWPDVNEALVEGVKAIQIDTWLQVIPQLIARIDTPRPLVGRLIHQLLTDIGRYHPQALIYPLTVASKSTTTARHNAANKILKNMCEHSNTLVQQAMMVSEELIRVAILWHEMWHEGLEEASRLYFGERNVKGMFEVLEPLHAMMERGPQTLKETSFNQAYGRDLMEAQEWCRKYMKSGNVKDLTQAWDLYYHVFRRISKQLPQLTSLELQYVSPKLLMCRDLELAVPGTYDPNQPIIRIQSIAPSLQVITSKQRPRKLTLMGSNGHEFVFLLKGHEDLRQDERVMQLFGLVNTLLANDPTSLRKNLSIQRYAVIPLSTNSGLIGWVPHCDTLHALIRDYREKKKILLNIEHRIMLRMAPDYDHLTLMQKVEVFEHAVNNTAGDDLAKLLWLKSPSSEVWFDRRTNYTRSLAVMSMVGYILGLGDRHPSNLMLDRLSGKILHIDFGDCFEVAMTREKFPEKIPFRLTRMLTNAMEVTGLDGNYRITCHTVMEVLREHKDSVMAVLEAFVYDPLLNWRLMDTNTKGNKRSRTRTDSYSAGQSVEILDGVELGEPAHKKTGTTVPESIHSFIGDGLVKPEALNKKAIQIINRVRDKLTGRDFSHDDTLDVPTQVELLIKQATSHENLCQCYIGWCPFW

Row | Compound | IC50 [1] | EC50 [2] | IC50 PI3Ka [3]
1 | Cc1ncnc(N2C[C@@H](C)O[C@@H](C)C2)c1C#Cc1ccc(N)nc1 [Example B-9] | 11 nM | 184 nM | 34 nM
2 | Cc1ncnc(N2CCN(C3CC3)CC2)c1C#Cc1ccc(N)nc1 [Example B-5] | 10 nM | 118 nM | 58 nM
3 | CC(=O)NCC1CCN(c2ncnc(C)c2C#Cc2ccc(N)nc2)CC1 [Example F-1] | 15 nM | 135 nM | 36 nM
4 | CCc1ncnc(N2CCC(O)(Cc3ccccc3)CC2)c1C#Cc1ccc(N)nc1 [Example B-17] | 74 nM | 129 nM | 115 nM
5 | CC(=O)NC1CCCN(c2ncnc(C)c2C#Cc2ccc(N)nc2)C1 (stereo not drawn) [Example B-24] | 46 nM | 352 nM | 158 nM
6 | CCc1ncnc(N2CCC(CC(C)(C)O)CC2)c1C#Cc1ccc(N)nc1 [Example B-14] | 9 nM | 29 nM | 26 nM
7 | CCc1ncnc(N2CCN(C(C)=O)CC2)c1C#Cc1ccc(N)nc1 [Example B-40] | 32 nM | 187 nM | 62 nM
8 | Cc1ncnc(N2CCC(CNC(=O)CC3CCCC3)CC2)c1C#Cc1ccc(N)nc1 [Example F-3] | 16 nM | 335 nM | 39 nM
9 | CCc1ncnc(N2CCC3(CC2)OCCCO3)c1C#Cc1ccc(N)nc1 [Example B-61] | 4 nM | 33 nM | 43 nM
10 | CC(=O)N1CCCN(c2ncnc(C)c2C#Cc2ccc(N)nc2)CC1 [Example B-7] | 94 nM | 722 nM | 348 nM
11 | CCc1ncnc(N2CCS(=O)(=O)CC2)c1C#Cc1ccc(N)nc1 [Example B-53] | 12 nM | 142 nM | 380 nM
12 | CCNC(=O)CC1CCN(c2ncnc(C)c2C#Cc2ccc(N)nc2)CC1 [Example E-5] | 58 nM | 171 nM | 38 nM
13 | CCc1ncnc(N2CCC(=O)CC2)c1C#Cc1ccc(N)nc1 [Example B-62] | 28 nM | 105 nM | 109 nM
14 | CCc1ncnc(N2CCC(O)(C(F)(F)F)CC2)c1C#Cc1ccc(N)nc1 [Example B-19] | 1 nM | 3 nM | 53 nM
15 | CCc1ncnc(N2CCC(C(C)(C)O)CC2)c1C#Cc1ccc(N)nc1 [Example B-11] | 7 nM | 60 nM | 31 nM
16 | CCc1ncnc(N2CCC(C)(OC)CC2)c1C#Cc1ccc(N)nc1 [Example B-59] | 5 nM | 23 nM | 53 nM
17 | CCc1ncnc(N2CCC(C=C(C)C)CC2)c1C#Cc1ccc(N)nc1 [Example B-15] | 64 nM | 202 nM | 622 nM

Row | Compound | IC50 [1] | EC50 [2] | IC50 PI3Ka [3]
18 | CCc1ncnc(N2CCN(CC(C)(C)O)CC2)c1C#Cc1ccc(N)nc1 [Example B-81] | 7 nM | 71 nM | 143 nM
19 | COCCNC(=O)CC1CCN(c2ncnc(C)c2C#Cc2ccc(N)nc2)CC1 [Example E-4] | 144 nM | 300 nM | 66 nM
20 | Cc1ncnc(N2CCC3(CCN(C)CC3)CC2)c1C#Cc1ccc(N)nc1 [Example B-80] | 25 nM | 161 nM | 99 nM
21 | CCc1ncnc(N2CCC3(CC2)OCCO3)c1C#Cc1ccc(N)nc1 [Example B-22] | 4 nM | 32 nM | 57 nM
22 | CCc1ncnc(N2CCC(O)(C(F)(F)F)CC2)c1C#Cc1ccc(C)nc1 [Example B-31] | 37 nM | 80 nM | 172 nM
23 | CCc1ncnc(N2CCCC(CO)C2)c1C#Cc1ccc(C)nc1 (stereo not drawn) [Example B-71] | 108 nM | 388 nM | 90 nM
24 | CCCCCC(=O)NCC1CCN(c2ncnc(C)c2C#Cc2ccc(N)nc2)CC1 [Example F-2] | 31 nM | 344 nM | 23 nM
25 | CCc1ncnc(N2CCC(CO)CC2)c1C#Cc1ccc(C)nc1 [Example B-72] | 70 nM | 474 nM | 134 nM
26 | CCc1ncnc(N2CCOCC2)c1C#Cc1ccc(N)nc1 [Example B-57] | 93 nM | 119 nM | 46 nM
27 | Cc1ncnc(N2CCC(O)(c3ccccc3)CC2)c1C#Cc1ccc(N)nc1 [Example B-27] | 23 nM | 56 nM | 22 nM
28 | CCc1ncnc(N2CCC(F)(F)CC2)c1C#Cc1ccc(N)nc1 [Example B-42] | 31 nM | 105 nM | 196 nM
29 | CCc1ncnc(N2CCOC(C)(C)C2)c1C#Cc1ccc(N)nc1 [Example B-50] | 30 nM | 56 nM | 49 nM
30 | CCc1ncnc(N2CCC(O)CC2)c1C#Cc1ccc(NC)nc1 [Example B-87] | 20 nM | 104 nM | 76 nM
31 | CCOC1CCN(c2ncnc(CC)c2C#Cc2ccc(C)nc2)CC1 [Example B-69] | 168 nM | 783 nM | 99 nM
32 | CCc1ncnc(N2CCC3(CCN(C)C3=O)CC2)c1C#Cc1ccc(N)nc1 [Example B-77] | 8 nM | 43 nM | 67 nM
33 | CCc1ncnc(N2CCC(O)(C3CCCCC3)CC2)c1C#Cc1ccc(N)nc1 [Example B-12] | 16 nM | 94 nM | 189 nM
34 | Cc1ncnc(N2CCC(O)(C(C)C)CC2)c1C#Cc1ccc(N)nc1 [Example B-66] | 5 nM | 24 nM | 51 nM
